# Results reported in ChEMBL document CHEMBL4052799, “Discovery of orally bioavailable cyclohexanol-based NR2B-selective NMDA receptor antagonists with analgesic activity utilizing a scaffold hopping approach” (Bioorg Med Chem Lett, 2017).
# Tests used:
# [1] = Oral bioavailability in Sprague-Dawley rat at 1 mg/kg administered through cassette dosing; assay type: ADME, organism-based; settings: in vivo
# [2] = target: Glutamate receptor ionotropic, NMDA 2B (Rattus norvegicus, UniProt Q00960); assay: Displacement of [3H]-ifenprodil from NR2B in Wistar rat brain membrane after 120 mins by liquid scintillation counting analysis; assay type: cell membranes
# Chain of Glutamate receptor ionotropic, NMDA 2B (Rattus norvegicus, UniProt Q00960) (Q00960 whole entry): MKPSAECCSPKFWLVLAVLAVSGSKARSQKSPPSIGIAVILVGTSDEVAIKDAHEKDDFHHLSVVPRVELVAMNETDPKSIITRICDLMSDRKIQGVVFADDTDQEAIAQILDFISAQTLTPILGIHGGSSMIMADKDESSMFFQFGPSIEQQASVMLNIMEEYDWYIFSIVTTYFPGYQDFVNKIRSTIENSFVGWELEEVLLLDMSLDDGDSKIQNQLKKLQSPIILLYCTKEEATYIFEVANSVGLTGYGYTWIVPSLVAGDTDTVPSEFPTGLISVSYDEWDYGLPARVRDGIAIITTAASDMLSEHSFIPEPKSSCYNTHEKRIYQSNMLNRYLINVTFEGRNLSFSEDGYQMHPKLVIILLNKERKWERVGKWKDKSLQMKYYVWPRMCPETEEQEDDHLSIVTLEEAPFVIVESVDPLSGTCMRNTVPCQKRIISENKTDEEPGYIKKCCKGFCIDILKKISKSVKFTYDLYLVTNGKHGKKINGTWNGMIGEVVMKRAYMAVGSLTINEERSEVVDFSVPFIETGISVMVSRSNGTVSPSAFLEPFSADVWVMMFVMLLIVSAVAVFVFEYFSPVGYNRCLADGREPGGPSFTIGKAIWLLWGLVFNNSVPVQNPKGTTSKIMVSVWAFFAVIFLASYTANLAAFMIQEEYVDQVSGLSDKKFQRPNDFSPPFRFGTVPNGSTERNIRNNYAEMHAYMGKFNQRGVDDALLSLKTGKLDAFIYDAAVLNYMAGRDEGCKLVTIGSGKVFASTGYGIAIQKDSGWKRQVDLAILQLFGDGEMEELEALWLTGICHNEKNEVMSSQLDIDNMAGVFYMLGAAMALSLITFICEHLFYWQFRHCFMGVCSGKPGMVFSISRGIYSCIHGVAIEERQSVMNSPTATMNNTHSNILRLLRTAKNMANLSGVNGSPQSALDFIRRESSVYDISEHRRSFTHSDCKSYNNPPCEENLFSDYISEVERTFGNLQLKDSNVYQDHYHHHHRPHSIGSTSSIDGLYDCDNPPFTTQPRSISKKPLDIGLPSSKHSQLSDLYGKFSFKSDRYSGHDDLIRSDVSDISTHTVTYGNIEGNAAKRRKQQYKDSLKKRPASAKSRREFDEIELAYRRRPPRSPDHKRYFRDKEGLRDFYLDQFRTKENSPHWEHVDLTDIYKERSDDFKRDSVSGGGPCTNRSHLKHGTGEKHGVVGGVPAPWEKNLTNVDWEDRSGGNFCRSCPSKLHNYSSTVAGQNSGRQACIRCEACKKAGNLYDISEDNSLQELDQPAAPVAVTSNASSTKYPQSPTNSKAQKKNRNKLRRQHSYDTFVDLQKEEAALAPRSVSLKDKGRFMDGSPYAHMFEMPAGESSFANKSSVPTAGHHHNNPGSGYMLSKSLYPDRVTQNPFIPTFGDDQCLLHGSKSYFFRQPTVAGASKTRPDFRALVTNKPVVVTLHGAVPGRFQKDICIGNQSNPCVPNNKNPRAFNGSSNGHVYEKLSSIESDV
# [3] = target: Glutamate receptor ionotropic, NMDA 2B (Mus musculus, UniProt P35438+Q01097); assay: Antagonist activity at mouse NR2B expressed in Hek293 cells co-expressing mouse NR1 assessed as inhibition of glutamic acid/glycine-induced intracellular Ca2+ levels measured after 1 day post induction by Fluo-3/AM dye-based fluorescence assay; assay type: cell-based
# Chain of Glutamate receptor ionotropic, NMDA 2B (Mus musculus, UniProt P35438+Q01097) (Q01097 whole entry, one chain of several): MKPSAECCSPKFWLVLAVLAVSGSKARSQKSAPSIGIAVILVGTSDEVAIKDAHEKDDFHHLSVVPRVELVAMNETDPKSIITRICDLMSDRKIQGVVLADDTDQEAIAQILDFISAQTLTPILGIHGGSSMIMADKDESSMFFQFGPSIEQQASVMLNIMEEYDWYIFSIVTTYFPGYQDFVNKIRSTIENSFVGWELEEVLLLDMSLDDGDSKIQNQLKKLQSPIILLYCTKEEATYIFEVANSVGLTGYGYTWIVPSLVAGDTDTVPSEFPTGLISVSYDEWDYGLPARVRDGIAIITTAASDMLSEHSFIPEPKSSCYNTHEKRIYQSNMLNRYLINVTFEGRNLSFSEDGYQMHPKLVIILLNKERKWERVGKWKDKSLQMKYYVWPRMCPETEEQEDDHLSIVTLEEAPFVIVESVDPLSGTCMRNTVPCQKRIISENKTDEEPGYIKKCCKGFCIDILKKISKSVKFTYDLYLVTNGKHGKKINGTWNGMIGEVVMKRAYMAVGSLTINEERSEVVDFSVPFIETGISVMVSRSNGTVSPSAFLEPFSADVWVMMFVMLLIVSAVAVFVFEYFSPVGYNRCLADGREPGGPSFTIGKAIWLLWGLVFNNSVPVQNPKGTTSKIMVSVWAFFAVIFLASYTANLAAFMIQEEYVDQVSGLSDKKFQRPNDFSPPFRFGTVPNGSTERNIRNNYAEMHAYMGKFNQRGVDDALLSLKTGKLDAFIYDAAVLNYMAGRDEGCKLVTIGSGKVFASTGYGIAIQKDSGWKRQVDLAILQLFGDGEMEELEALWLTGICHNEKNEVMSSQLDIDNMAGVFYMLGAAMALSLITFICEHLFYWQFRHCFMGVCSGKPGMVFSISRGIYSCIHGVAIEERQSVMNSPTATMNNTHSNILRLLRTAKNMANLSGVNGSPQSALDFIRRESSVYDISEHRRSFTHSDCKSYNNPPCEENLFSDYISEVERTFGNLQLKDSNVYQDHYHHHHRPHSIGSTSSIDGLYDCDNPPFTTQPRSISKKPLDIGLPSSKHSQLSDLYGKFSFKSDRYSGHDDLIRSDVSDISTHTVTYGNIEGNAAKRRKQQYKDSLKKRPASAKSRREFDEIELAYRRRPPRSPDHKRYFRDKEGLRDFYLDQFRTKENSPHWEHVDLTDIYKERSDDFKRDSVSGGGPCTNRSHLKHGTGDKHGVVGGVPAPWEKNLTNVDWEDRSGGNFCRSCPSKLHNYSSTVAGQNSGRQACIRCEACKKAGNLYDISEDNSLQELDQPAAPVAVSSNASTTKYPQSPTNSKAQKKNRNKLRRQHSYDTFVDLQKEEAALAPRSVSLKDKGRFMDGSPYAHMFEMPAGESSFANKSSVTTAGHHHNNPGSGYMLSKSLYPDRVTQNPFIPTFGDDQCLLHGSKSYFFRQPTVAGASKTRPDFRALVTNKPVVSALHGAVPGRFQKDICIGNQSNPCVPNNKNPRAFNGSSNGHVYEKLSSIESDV
# [4] = Total clearance in Sprague-Dawley rat at 0.5 mg/kg, iv or 1 mg/kg, po administered through cassette dosing; assay type: ADME, organism-based; settings: in vivo
# [5] = Ratio of drug level in brain to plasma in Sprague-Dawley rat at 0.5 mg/kg, iv administered through cassette dosing measured after 0.5 hrs; assay type: ADME, organism-based; settings: brain and plasma
# hERG (KCNH2) = hERG (KCNH2) (Homo sapiens, UniProt Q12809); assay: Inhibition of human ERG expressed in HEK293 cells at 1 uM after 10 mins by whole cell patch clamp method relative to control; assay type: cell-based; settings: HEK293 cells that express hERG
# Chain of hERG (KCNH2) (Q12809 whole entry): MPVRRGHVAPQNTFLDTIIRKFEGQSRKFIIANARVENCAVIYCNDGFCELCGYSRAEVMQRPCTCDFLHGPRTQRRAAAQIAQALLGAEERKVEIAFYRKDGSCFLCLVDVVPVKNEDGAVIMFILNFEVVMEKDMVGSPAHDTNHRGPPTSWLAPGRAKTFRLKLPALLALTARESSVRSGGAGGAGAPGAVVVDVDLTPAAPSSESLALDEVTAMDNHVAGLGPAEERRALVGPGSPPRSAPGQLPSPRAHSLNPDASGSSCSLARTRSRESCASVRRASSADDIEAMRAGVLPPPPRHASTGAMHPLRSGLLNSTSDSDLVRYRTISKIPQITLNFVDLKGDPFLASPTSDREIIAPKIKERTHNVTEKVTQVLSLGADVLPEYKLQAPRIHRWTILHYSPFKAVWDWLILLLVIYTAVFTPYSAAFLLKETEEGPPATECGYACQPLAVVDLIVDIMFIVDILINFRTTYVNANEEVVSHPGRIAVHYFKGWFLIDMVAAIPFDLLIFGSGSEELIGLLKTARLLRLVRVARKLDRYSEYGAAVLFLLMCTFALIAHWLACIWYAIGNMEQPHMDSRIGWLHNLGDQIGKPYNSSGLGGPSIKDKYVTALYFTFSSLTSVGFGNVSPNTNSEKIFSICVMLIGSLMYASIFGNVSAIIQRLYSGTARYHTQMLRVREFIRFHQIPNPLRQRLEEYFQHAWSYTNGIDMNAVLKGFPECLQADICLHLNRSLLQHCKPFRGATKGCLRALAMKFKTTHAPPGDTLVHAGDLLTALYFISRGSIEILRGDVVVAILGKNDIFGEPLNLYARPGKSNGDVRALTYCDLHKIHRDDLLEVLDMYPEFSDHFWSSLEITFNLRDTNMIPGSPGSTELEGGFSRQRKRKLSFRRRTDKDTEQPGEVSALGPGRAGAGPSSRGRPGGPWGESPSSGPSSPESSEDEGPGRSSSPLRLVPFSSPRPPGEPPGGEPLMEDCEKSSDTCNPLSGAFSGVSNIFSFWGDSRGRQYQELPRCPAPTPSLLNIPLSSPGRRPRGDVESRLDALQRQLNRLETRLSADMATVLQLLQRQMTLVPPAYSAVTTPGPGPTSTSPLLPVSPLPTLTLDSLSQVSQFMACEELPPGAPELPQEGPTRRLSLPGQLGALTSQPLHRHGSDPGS
# Mus musculus [6] = assay: Analgesic activity in po dosed formalin-induced chronic pain ICR mouse model assessed as reduction in rate of licking time in early phase at 30 mg/kg administered 30 min prior to formalin challenge measured during first 5 mins post formalin challenge relative to control; assay type: functional
# Mus musculus [7] = assay: Analgesic activity in po dosed formalin-induced chronic pain ICR mouse model assessed as reduction in rate of licking time in late phase at 30 mg/kg administered 30 min prior to formalin challenge measured during 10 to 30 mins post formalin challenge relative to control; assay type: functional
# Mus musculus [8] = assay: Analgesic activity in po dosed formalin-induced chronic pain ICR mouse model assessed as reduction in rate of licking time in late phase at 50 mg/kg administered 30 min prior to formalin challenge measured during 10 to 30 mins post formalin challenge relative to control; assay type: functional
# Mus musculus [9] = assay: Analgesic activity in po dosed formalin-induced chronic pain ICR mouse model assessed as reduction in rate of licking time in early phase at 50 mg/kg administered 30 min prior to formalin challenge measured during first 5 mins post formalin challenge relative to control; assay type: functional
Compound,bioavailability [1],IC50 [2],IC50 [3],clearance [4],Kp at 0.5 h [5],"inhibition at 10 min, 1 µM (hERG (KCNH2))",inhibition in vivo at 30 mg/kg (Mus musculus [6]),inhibition in vivo at 30 mg/kg (Mus musculus [7]),inhibition in vivo at 50 mg/kg (Mus musculus [8]),inhibition in vivo at 50 mg/kg (Mus musculus [9])
O=c1ccc(-c2nc(C[C@]3(O)CC[C@@H](Cc4ccc(Cl)cc4)CC3)no2)c[nH]1,,0.126 µM,0.158 µM,,,,,,,
O[C@]1(Cc2cc(-c3cn[nH]c3)on2)CC[C@H](Cc2ccc(C(F)(F)F)cc2)CC1,67.5%,0.1 µM,0.0126 µM,4 mL/min/kg,2.66,,84.8%,96.5%,,
O=c1[nH]c2ccc(-c3cc(C[C@]4(O)CC[C@@H](Cc5ccc(Cl)cc5)CC4)no3)cc2o1,,0.2 µM,0.0398 µM,,,,,,,
O[C@]1(Cc2cc(-c3cn[nH]c3)on2)CC[C@H](Cc2ccc(F)c(F)c2)CC1,67.5%,0.0794 µM,0.0398 µM,15.2 mL/min/kg,1.99,15%,,,,
O=c1[nH]c2ccc(-c3cc(C[C@]4(O)CC[C@@H](Cc5ccccc5)CC4)no3)cc2o1,8.4%,0.1 µM,0.0158 µM,12.1 mL/min/kg,0.92,,,,,
O=C(C[C@]1(O)CC[C@@H](Cc2ccccc2)CC1)Nc1ccc2[nH]ncc2c1,23.7%,0.0631 µM,0.0398 µM,21.5 mL/min/kg,0.9,18%,,,74.4%,59.5%
O[C@]1(Cc2cc(-c3cn[nH]c3)on2)CC[C@@H](Cc2ccc(Cl)cc2)CC1,,0.631 µM,0.2 µM,,,,,,,
O=C(C[C@]1(O)CC[C@@H](Cc2ccc(OC(F)(F)F)cc2)CC1)Nc1ccc2[nH]c(=O)oc2c1,53.4%,0.0501 µM,0.00316 µM,21 mL/min/kg,0.15,,,,,
O=C(C[C@]1(O)CC[C@@H](Cc2ccccc2)CC1)Nc1ccc2[nH]c(=O)oc2c1,47.4%,0.0158 µM,0.000631 µM,34.1 mL/min/kg,0.25,13.2%,,,66.7%,58.1%
COc1ccc(C[C@H]2CC[C@](O)(CC(=O)Nc3ccc4[nH]c(=O)oc4c3)CC2)cc1,16%,0.0631 µM,0.001 µM,45.9 mL/min/kg,0.11,,,,,
O[C@]1(Cc2cc(-c3cn[nH]c3)on2)CC[C@H](Cc2ccc(OC(F)(F)F)cc2)CC1,121%,0.0794 µM,0.0251 µM,6.2 mL/min/kg,2.51,,76.8%,95.4%,,
O[C@]1(Cc2cc(-c3cn[nH]c3)on2)CC[C@H](Cc2ccccc2)CC1,46.3%,0.0398 µM,0.0158 µM,56.5 mL/min/kg,1.44,14%,,,,
O=c1ccc(-c2cc(C[C@]3(O)CC[C@H](Cc4ccc(Cl)cc4)CC3)no2)c[nH]1,38.7%,0.316 µM,0.0631 µM,6.6 mL/min/kg,0.47,29.2%,,,,
O=C1CCc2cc(NC(=O)C[C@]3(O)CC[C@@H](Cc4ccccc4)CC3)ccc2N1,53.4%,0.0316 µM,0.01 µM,24.4 mL/min/kg,0.18,11.3%,,,25.7%,1.5%
O=C(C[C@]1(O)CC[C@H](Cc2ccc(F)cc2)CC1)Nc1ccc2[nH]c(=O)oc2c1,58%,0.0398 µM,0.0158 µM,42.3 mL/min/kg,0.23,12.2%,,,,

# Further compounds by falling IC50 [2], results first:
bioavailability [1],IC50 [2],IC50 [3],clearance [4],Kp at 0.5 h [5],Compound,"inhibition at 10 min, 1 µM (hERG (KCNH2))",inhibition in vivo at 30 mg/kg (Mus musculus [6]),inhibition in vivo at 30 mg/kg (Mus musculus [7]),inhibition in vivo at 50 mg/kg (Mus musculus [8]),inhibition in vivo at 50 mg/kg (Mus musculus [9])
72.8%,0.0398 µM,0.00631 µM,11.7 mL/min/kg,1.31,O[C@]1(Cc2cc(-c3cn[nH]c3)on2)CC[C@H](Cc2ccc(Cl)cc2)CC1,32%,,,,
23.7%,0.0398 µM,0.0251 µM,61.8 mL/min/kg,1.64,COc1ccc(C[C@H]2CC[C@](O)(Cc3cc(-c4cn[nH]c4)on3)CC2)cc1,,,,,
33%,0.0316 µM,0.0158 µM,35.1 mL/min/kg,0.9,O=C(C[C@]1(O)CC[C@H](Cc2ccccc2)CC1)Nc1ccc2[nH]c(=O)oc2c1,7.7%,,,,
28.2%,0.0316 µM,0.0158 µM,16.5 mL/min/kg,0.11,O=C1Cc2cc(NC(=O)C[C@]3(O)CC[C@@H](Cc4ccccc4)CC3)ccc2N1,12.1%,,,,
30%,0.0316 µM,0.00316 µM,37.1 mL/min/kg,1,O=C(Nc1ccc2[nH]c(=O)oc2c1)C(=O)N1CCC(Cc2ccc(F)cc2)CC1 [RADIPRODIL],,,,,
12.1%,0.0251 µM,0.002 µM,35.7 mL/min/kg,0.14,O=C(C[C@]1(O)CC[C@@H](Cc2ccc(F)c(F)c2)CC1)Nc1ccc2[nH]c(=O)oc2c1,,,,,
,0.0251 µM,0.00631 µM,,,O=C(C[C@]1(O)CC[C@@H](Cc2ccc(C(F)(F)F)cc2)CC1)Nc1ccc2[nH]c(=O)oc2c1,,,,,
53.1%,0.0251 µM,0.01 µM,37.6 mL/min/kg,0.34,O=c1ccc(-c2cc(C[C@]3(O)CC[C@@H](Cc4ccccc4)CC3)no2)c[nH]1,4.4%,,,,
,0.0251 µM,0.00316 µM,,,O=C(C[C@]1(O)CC[C@@H](Cc2ccc(Cl)cc2)CC1)Nc1ccc2[nH]c(=O)oc2c1,,,,,
37.2%,0.0251 µM,0.001 µM,16.8 mL/min/kg,0.08,O=c1ccc(-c2cc(C[C@]3(O)CC[C@@H](Cc4ccc(Cl)cc4)CC3)no2)c[nH]1,23%,,,,
42.4%,0.0251 µM,0.000631 µM,36.8 mL/min/kg,0.12,O=C(C[C@]1(O)CC[C@@H](Cc2ccc(F)cc2)CC1)Nc1ccc2[nH]c(=O)oc2c1,26.1%,,,,
78%,0.0126 µM,0.0126 µM,30 mL/min/kg,1.62,O[C@]1(Cc2cc(-c3cn[nH]c3)on2)CC[C@H](Cc2ccc(F)cc2)CC1,22.5%,,,,
